Results as given in patent publication US12036312B2, “Non-aqueous topical compositions comprising a halogenated salicylanilide” (priority 2016, dated 2024).
≈ marks a conversion by molar mass, not a printed value.

Assays:
Type in all cases: cell-based, Staphylococcus aureus
MRSA 01 [1] = assay: Time-kill assay; settings: initial inoculum 7 log10 cfu/ml, niclosamide 4 μg/ml [MIC×10]
Procedure: This assay was performed in 20 ml of medium. It included a negative control (medium without bacteria), a positive control (bacteria grown without niclosamide) and the assay (bacteria grown with niclosamide). […] This experiment was performed with the primary test microorganism indicated above.
The overnight culture was stopped and OD600 was measured. Culture was then diluted in indicated medium to obtain an OD600 of 0.25 in order to have about 5×10^8 cfu/ml. Two hundred μl of this diluted culture were then added in all conditions except in the negative control. Initial bacterial concentration was about 5×10^6 cfu/ml. Tubes were incubated aerobically at 37° C. for 24 hours.
Bacteria were enumerated before the incubation, after 30 minutes, 1, 2, 4, 8 and 24 hours of incubation by serial dilutions in NaCl 0.9% and plating on LB agar, with 2 plates per dilution. Plates were incubated at 37° C. and colonies enumerated after 24 hours.

[2] = tested on: MRSA 01, MRSA 15 (fusidic acid-resistant), MRSA 16 (mupirocin-resistant); assay: Mutational frequency evaluation (spontaneous single-step mutations), Example 1; settings: at MIC×1 (Example 1)
MRSA 01 [3] = assay: Effect of pH on the antibacterial activity (MIC in pH-adjusted Mueller-Hinton Broth); settings: for MIC: Staphylococcus aureus, MRSA
Procedure: Chosen for its relevance regarding bacterial skin infections, the methicillin-resistant S. aureus (MRSA) 01 strain was used. This strain is a community-acquired MRSA clinical isolate of USA 300 type, from a skin abscess.
This strain was conserved in Luria Bertani (LB) Broth supplemented with glycerol 15% (v/v) at −80° C., and reactivated by isolation on LB agar plates. It was then cultivated aerobically in Mueller Hinton (MH) Broth-cation adjusted at 37° C.
The pH of Mueller-Hinton Broth cation-adjusted was adjusted with HCl 2M to 7, 6.5, 6, 5.5, 5, 4.5 and […]. Ten ml of medium for each pH were prepared. The pH of non-adjusted MHBII was equal to 7.4.
Each pH-adjusted samples were filtered on 0.2 μm filters before being used for the MIC determination assay.
Bacterial culture was stopped in its exponential growth phase and plates were inoculated with the approximate concentration of 5×10^5 cells per well. Plates were incubated at 37° C. for 18 hours (S. aureus). Optical density at a wavelength of 600 nm was measured at the end of the incubation time.
The experiment was performed in triple biological replicates.

Structure (SMILES): O=C(Nc1ccc([N+](=O)[O-])cc1Cl)c1cc(Cl)ccc1O [Niclosamide, niclosamide]
- bactericidal or bacteriostatic effect (MRSA 01 [1]): bacteriostatic effect
- mutational frequency [2]: < 4×10^−10
- MIC (MRSA 01 [3]; MRSA 01, pH 7.0 (actual pH 7.071), Replicate 2): 0.125 µg/mL (≈ 0.382 µM)
- MIC (MRSA 01 [3]; pH 7.4, MRSA 01, pH not adjusted (actual pH 7.4), Replicate 1): 0.5 µg/mL (≈ 1.53 µM)
- MIC (MRSA 01 [3]; pH 7.4, MRSA 01, pH not adjusted (actual pH 7.4), Replicate 3): 0.5 µg/mL (≈ 1.53 µM)
- inhibitory activity against MRSA 01 as a function of pH (MRSA 01 [3]; pH-adjusted Mueller-Hinton Broth): increased when pH was decreased
